Measured values from patent US11213508B2, “Compositions comprising urolithins and uses thereof for the stimulation of insulin secretion” (Centre National de la Recherche Scientifique (CNRS), priority 2013, dated 2022).
Values joined by “and” are separate entries in the source; they are usually repeats but may differ in a detail not shown here. Equal values may be shown once.

Columns and labels:
[1] = tested on: INS-1 insulin-secreting β-cells; experiment: Glucose (8.3 mmol·L^−1)-stimulated insulin secretion in INS-1 cells (HTRF insulin assay); format: cell-based; details: 8.3 mmol·L^−1 glucose; for activity at 2 µM / activity at 20 µM: Rattus norvegicus, INS1, 1 h, read-out: % control response (glucose-stimulated insulin secretion); for activity at 2 µM / activity at 20 µM / % control response (glucose-stimulated insulin secretion): control = glucose alone
Experimental: Cells were seeded in 24-well plates (4×10^5 cells per well) and were used for experiments after 5 days of culture.
(§1) Cells were incubated for 1 h (5% CO2, 37° C.) in KRB medium containing 8.3 mmol·L^−1 glucose (glucose-stimulated secretion) in the presence or absence of the compounds tested. At the end of the 1 h incubation period, the medium was sampled and stored at −20° C. until the insulin assay. Insulin concentration in cell supernatants was determined using the homogeneous time resolved fluorescence technology (HTRF), according to the manufacturer's instructions (HTRF insulin assay kit, Cisbio International, Bagnols-sur-Ceze, France). Briefly, two anti-insulin antibodies were used; one labelled with Eu^3+-Cryptate and one labelled with XL665 recognizing distinct epitopes. When these two fluorophores bind to insulin molecules, the two antibodies come into close proximity, allowing fluorescence resonance energy transfer (FRET) to occur between the Eu^3+-Cryptate and the XL665. This FRET increases proportionally with the insulin concentrations. All the experiments were performed at least in quadruplicate.
For the determination of insulin secretion, cells were incubated for 1 h (5% CO2, 37° C.) in KRB medium containing either 1.4 mmol·L^−1 glucose (low-glucose) or 8.3 mmol·L^−1 glucose (glucose-stimulated secretion) in the presence or absence of the compounds tested. At the end of the 1 h incubation period, mediums were sampled and stored at −20° C. until the insulin assay.

[2] = tested on: INS-1 insulin-secreting β-cells; details: Youl et al., 2010; cited from earlier work
[3] = tested on: INS-1 insulin-secreting β-cells; experiment: Glibenclamide-stimulated insulin secretion in INS-1 cells; format: cell-based; details: glibenclamide 0.01 μmol·L^−1
Experimental: The insulin-secreting cell line INS-1 (a gift from Professor C. B. Wollheim) was cultured in RPMI-1640, supplemented with 10% fetal calf serum (FCS), 100 U·mL^−1 penicillin, 100 μg·mL^−1 streptomycin, 2 mmol·L^−1 L-glutamine, 10 mmol·L^−1 HEPES, 1 mmol·L^−1 sodium pyruvate, and […] 2-mercaptoethanol, as previously described by Youl et al. (2010). Cells were seeded in 24-well plates (4×10^5 cells per well) and were used for experiments after 5 days of culture.
as §1, with “Before the treatment, RPMI medium was removed and the cells were washed twice with HEPES-balanced Krebs-Ringer bicarbonate buffer (KRB) containing (in mmol·L^−1): 123 NaCl, 5.4 KCl, 1.3 KH2PO4, 2.7 MgSO4, 2.9 CaCl2, 5 NaHCO3 and 20 HEPES, pH 7.5, with 2 g·L^−1 bovine serum albumin (KRB/BSA). Cells” for “Cells”
Material and methods were the same as described in example 1. For the determination of insulin secretion, cells were incubated for 1 h (5% CO2, 37° C.) in KRB medium containing 1.4 mmol·L^−1 glucose (low-glucose condition) and 0.01 μmol·L^−1 glibenclamide (glibenclamide-stimulated secretion), in the presence or absence of urolithins. At the end of the 1 h incubation period, the medium was sampled and stored at −20° C. until the insulin assay. Insulin concentration in cell supernatants was determined as described in Example 1.

Compound	activity at 2 µM ([1]; compound 2 μM) [%]	activity at 20 µM ([1]; compound 20 μM) [%]	also measured
COc1cc(C(=O)O)cc(O)c1O [3-O-Methylgallic acid]	93	105	
O=C(O)[C@H]1O[C@@H](Oc2c(-c3ccc(O)cc3)oc3cc(O)cc(O)c3c2=O)[C@H](O)[C@@H](O)[C@@H]1O [Kaempferol-3 -glucuronide]			% control response (glucose-stimulated insulin secretion) ([1]; compound 2 μM): 111.00%; % control response (glucose-stimulated insulin secretion) ([1]; compound 20 μM): 104.00%
O=C(O)CNC(=O)c1ccc(O)cc1 [4′-hydroxyhippuric acid]			% control response (glucose-stimulated insulin secretion) ([1]; compound 2 μM): 98.00%; % control response (glucose-stimulated insulin secretion) ([1]; compound 20 μM): 111.00%
O=C(O)Cc1cccc(O)c1 [3-hydroxyphenylacetic acid]	98	104	
O=C(O)c1ccc(O)cc1 [4-hydroxybenzoic acid]	96	98	
O=C(O)[C@H]1O[C@@H](Oc2c(-c3ccc(O)c(O)c3)oc3cc(O)cc(O)c3c2=O)[C@H](O)[C@@H](O)[C@@H]1O [Quercetin-3 -glucuronide]			% control response (glucose-stimulated insulin secretion) ([1]; compound 2 μM): 89.00%; % control response (glucose-stimulated insulin secretion) ([1]; compound 20 μM): 103.00%
COc1cc(/C=C/C(=O)O)ccc1O [Ferulic acid]	109	115	
O=c1oc2c(O)c(O)cc3c(=O)oc4c(O)c(O)cc1c4c23 [Ellagic acid, reference compound]	93.4	101	ability to amplify glucose-stimulated insulin secretion ([1]; blind screening, 2 and 20 μM): not active
COc1ccc(/C=C/C(=O)NCC(=O)O)cc1O [Isoferuloylglycine]	80	82	
Oc1ccccc1O [Pyrocatechol]	87	96	
O=C(O)C(O)Cc1ccc(O)cc1 (stereo not drawn) [3-(4′-hydroxyphenyl)lactic acid]	97	79	
CC(=O)N[C@@H](CS)C(=O)O [N-acetyl cysteine]			prevention of H2O2-induced insulin secretion impairment [2]: not
Oc1cc(O)cc(O)c1 [Phloroglucinol]	100	105	
Oc1ccc(C=Cc2cc(O)cc(O)c2)cc1 [resveratrol]			prevention of H2O2-induced insulin secretion impairment [2]: not
O=c1c(O)c(-c2ccc(O)c(O)c2)oc2cc(O)cc(O)c12 [Quercetin, reference compound]	93.8	237	prevention of H2O2-induced insulin secretion impairment [2]: able to prevent H2O2-induced insulin secretion impairment
Oc1cccc(O)c1O [Pyrogallol]	93	98	
COc1cc(CC(=O)O)ccc1O [Homovanillic acid]	93	83	
O=C(O)Cc1ccc(O)cc1 [4′-hydroxyphenylacetic acid]			% control response (glucose-stimulated insulin secretion) ([1]; compound 2 μM): 102.00% and 107.00%; % control response (glucose-stimulated insulin secretion) ([1]; compound 20 μM): 74.00% and 81.00%
O=C(O)C(O)c1ccc(O)cc1 (stereo not drawn) [4′hydroxymandelic acid]			% control response (glucose-stimulated insulin secretion) ([1]; compound 2 μM): 103.00%; % control response (glucose-stimulated insulin secretion) ([1]; compound 20 μM): 86.00%
O=C(O)CCc1ccc(O)c(O)c1 [Dihydrocaffeic acid]	110	83	
COc1ccc(Cl)cc1C(=O)NCCc1ccc(S(=O)(=O)NC(=O)NC2CCCCC2)cc1 [glibenclamide, reference compound]			increase of secretion as compared to low-glucose condition [3]: 4/6
COc1cc(/C=C/C(=O)NCC(=O)O)ccc1O [Feruloylglycine]	102	102	
O=C(O)c1ccc(O)c(O)c1 [Protocatechuic acid]	108	92	
O=C(O)/C=C/c1ccc(O)c(O)c1 [Caffeic acid]	104	105	
OCCc1ccc(O)cc1 [Tyrosol]	86	89	
O=C(O)Cc1ccc(O)c(O)c1 [3,4-dihydroxyphenylacetic acid]	105	84	
COc1c(O)cc(C(=O)O)cc1O [4-O-Methylgallic acid]	104	86	
COc1cc(CCC(=O)O)ccc1O [Dihydroferulic acid]	106	103	
O=C(O)CCc1cccc(O)c1 [3-(3′-hydroxyphenyl)propionic acid]	98	103	
